From patent US12612650B2, “Methods for improved homologous recombination and compositions thereof” (LIFE TECHNOLOGIES CORPORATION, priority 2017, dated 2026)

Test system: genomic locus of beta-actin
Assay: OFP-positive cells by flow cytometry after electroporation of Cas9 RNP and donor DNA into human primary T cells
Assay type: cell-based
Conditions: 30 μM, 48 hours
Protocol: Human peripheral blood mononuclear cells (PBMCs) were isolated from peripheral blood using Ficoll-Paque PLUS density gradient according to manufacturer's instructions. The human primary T cells were then isolated using DYNABEADS™ UNTOUCHED™ Human T Cells Kit and expanded using OPTMIZER™ CTS™ T-Cell Expansion SFM supplemented with 200 IU/mL of IL-2. The activation and expansion of human T cells were carried out using DYNABEADS™ Human T-Expander CD3/CD28 kit. On day 3 of activation, T cells were harvested for transfection.
For transfection of primary T cells, 1×10^5 cells were used per NEON® electroporation with voltage set at 1700V, pulse width set at 20 ms, and the number of pulses set at 1, respectively. […] Cells were analyzed at 48 hours post transfection.
Traditionally, a plasmid donor was used to incorporate large DNA molecules into the genome. […] At 48 hours post transfection, we analyzed the percentages of OFP-positive cells using flow cytometry. […]
Linear ds- or ss-DNA donor could be degraded in vivo by exonucleases. […] At 48 hours post transfection, the percentages of OFP-positive cells were determined by flow cytometric analysis. […]
The disruption of NHEJ repair pathway is known to improve HDR efficiency. […] At 48 hours post transfection, we analyzed the cells by flow cytometry.

O=c1cc(N2CCOCC2)oc2c1ccc1ccccc12 [Nu7026, 2-(4-Morpholinyl)-4H-naphthol[1,2-b]pyran-4-one]
increase of the percentage of OFP-positive cells (amine-modified donor DNA): ~2 fold
increase of the percentage of OFP-positive cells (unmodified donor DNA): approximately 5 fold
